Data from patent US12304912B2, “Fused bicyclic RAF inhibitors and methods for use thereof” (Jazz Pharmaceuticals Ireland Limited, priority 2020, dated 2025).
Like-named read-outs stand apart in the source and are kept apart here.

Assays:
[1] = system: constitutive ERK phosphorylation in WiDr cells; assay: WiDr AlphaLISA SureFire pERK1/2 cellular assay; format: cell-based, human; details: WiDr cells, 2 hr; for IC50: Homo sapiens, read-out: pERK WiDr (2 hr) Abs pIC50 (converted)
Procedure: The human HCT-116 colorectal carcinoma cell line (ATCC CCL-247) endogenously expresses the KRAS^G13D mutation, which leads to constitutive activation of the MAP kinase pathway and phosphorylation of ERK. […] Assay read outs took place 2 or 24 hours after dosing with compounds. On the first day, HCT-116 cells were harvested, resuspended in growth medium (McCoys5A with Glutamax (Life Technologies 36600021) and 10% heat-inactivated fetal bovine serum (Sigma F9665)), and counted. Cells were plated in 100 μl per well in each well of a 96-well culture dish (Sigma CLS3598) to a final density of 30,000 (2 hr read) or 15,000 (24 hr read) cells per well and incubated over night at 37° C. and 5% CO2. On day 2, the growth medium was exchanged for dosing medium (McCoys5A with Glutamax (Life Technologies 36600021) and 1% heat-inactivated fetal bovine serum (Sigma F9665)) and the cells were dosed with compounds to produce a 10-point dose response, where the top concentration was 1 μM and subsequent concentrations were at 1/3 log dilution intervals. A matched DMSO control was included. The cells were subsequently incubated for either 2 or 24 hours at 37° C. and 5% CO2. After incubation, media was removed and the cells were incubated with lysis buffer containing phosphatase inhibitors for 15 minutes at room temperature. Cell lysates were transferred to a 12 area 96 well white Optiplate™ (Perkin Elmer 6005569) and incubated with anti-mouse IgG acceptor beads, a biotinylated anti-ERK1/2 rabbit antibody recognizing both phosphorylated and non-phosphorylated ERK1/2, a mouse antibody targeted to the Thr202/Tyr204 epitope and recognizing phosphorylated ERK proteins only, and streptavidin-coated donor beads. The biotinylated antibody binds to the streptavidin-coated donor beads and the phopsho-ERK1/2 antibody binds to the acceptor beads. Plates were read on an EnVision reader (Perkin Elmer) and excitation of the beads at 680 nm with a laser induced the release of singlet oxygen molecules from the donor beads that trigger energy transfer to the acceptor beads in close proximity, producing a signal that can be measured at […]. Both antibodies bound to phosphorylated ERK proteins, bringing the donor and acceptor beads into close proximity. All data were analyzed using the Dotmatics or GraphPad Prism software packages. Inhibition of ERK phosphorylation was assessed by determination of the absolute IC50 value, which is defined as the concentration of compound required to decrease the level of phosphorylated ERK proteins by 50% when compared to DMSO control.
WiDr AlphaLISA SureFire pERK1/2 Cellular Assay
The human WiDr colorectal adenocarcinoma cell line (ATCC CCL-218) endogenously expresses the BRAF^V600E mutation, which leads to constitutive activation of the MAP kinase pathway and phosphorylation of ERK. […] The main procedure is essentially the same as for HCT-116 cells (above), with the following adjustments to the growth medium (Eagle's Minimum Essential Medium (Sigma M2279) with 1× Glutamax (Life Technologies 35050038), 1× Sodium-Pyruvate (Sigma S8636), and 10% heat-inactivated fetal bovine serum (Sigma F9665)), the dosing medium (Eagle's Minimum Essential Medium (Sigma M2279) with 1× Glutamax (Life Technologies 35050038), 1× Sodium-Pyruvate (Sigma S8636), and 1% heat-inactivated fetal bovine serum (Sigma F9665)), and the seeding densities (2 hr: 50,000 cells per well; 24 hr: 35,000 cells per well). Moreover, the compounds were dosed in 1/2 log dilution intervals with the top concentration of 10 μM.

[2] = Microsomal stability assay, human liver microsomes (HLM); format: in vitro ADME; details: 0.5 mg/mL protein, 1 μM substrate
Outline: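 Substrate depletion: 1 μM compound incubated at 37° C. with cryopreserved mouse or human liver microsomes at 0.5 mg·mL^−1 protein. Timed aliquots quenched in ice-cold organic solvent and measured by LC-MS/MS; t1/2 and CLint derived from the slope of ln % remaining versus time.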

[3] = system: RAF dimers in HCT-116 cells; assay: HCT-116 AlphaLISA SureFire pERK1/2 cellular assay (dimer); format: cell-based; details: Homo sapiens, HCT-116, 1 hr
Outline: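 HCT-116 (KRAS G13D) cells, 30,000/well, pretreated 1 h with 1 μM Encorafenib to induce RAF dimers, washed, then dosed 1 h at 37° C with compound (10-point, top 10 μM, 1/2 log steps) in growth medium. pERK1/2 (T202/Y204) measured by AlphaLISA SureFire; absolute IC50 versus DMSO control.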

[4] = HCT116 cells, dimer, read-out: pERK HCT116 dimer (1 hr) plC50 (converted)
[5] = HCT116 cells pre-dosed with 1 μM Encorafenib, read-out: pERK HCT116 dimer (1 hr) pIC50 (converted)

Structure (SMILES) | IC50 ([1]; Abs) | microsomal CLint at 1 μM ([2]; 37° C.) | IC50 [3, 4] | IC50 ([1]; absolute IC50) | microsomal CLint at 1 μM [2] | IC50 [3, 5] | pERK WiDr (2 hr) Abs pIC50 ([1]; Abs)
O=C1CCc2c(Oc3ccc4c(c3)CC(c3nc(-c5ccnc(C(F)F)c5)c[nH]3)CO4)ccnc2N1 (centres unmarked) [Compound 101, 5-[3-[4-[2-(difluoromethyl)-4-pyridyl]-1H-imidazol-2-yl]chroman-6-yl]oxy-3,4-dihydro-1H-1,8-naphthyridin-2-one] | 182 nM | 29.6 µL/min/mg | 63.1 nM | – | – | – | –
O=C(Nc1cc(Oc2ccc3c(c2)CC(c2nc(-c4ccccc4)c[nH]2)CO3)ccn1)C1CC1(F)F (centres unmarked) [Compound 137, 2,2-difluoro-N-[4-[3-(4-phenyl-1H-imidazol-2-yl)chroman-6-yl]oxy-2-pyridyl]cyclopropanecarboxamide] | 74.1 nM | 32.6 µL/min/mg | 28.2 nM | – | – | – | –
Cc1cc(-c2c[nH]c(C3COc4ccc(Oc5ccnc6c5CCC(=O)N6)cc4C3)n2)n(C2CC2)n1 (centres unmarked) [Compound 114, 5-[3-[4-(2-cyclopropyl-5-methyl-pyrazol-3-yl)-1H-imidazol-2-yl]chroman-6-yl]oxy-3,4-dihydro-1H-1,8-naphthyridin-2-one] | 1350 nM | 38.5 µL/min/mg | 363 nM | – | – | – | –
O=C1CCc2c(Oc3ccc4c(c3)CC(c3nc5cc(Cl)ccc5[nH]3)CO4)ccnc2N1 (centres unmarked) [Compound 25] | – | – | – | 129 nM | 50.1 µL/min/mg | 115 nM | –
O=C(Cn1cncn1)Nc1cc(Oc2ccc3c(c2)CC(c2nc(-c4ccccc4)c[nH]2)CO3)ccn1 (centres unmarked) [Compound 154] | 33.1 nM | 22.8 µL/min/mg | 38 nM | – | – | – | –
O=C1CCc2c(Oc3ccc4c(c3)CC(c3nc(-c5ccnc(C(F)(F)F)c5)c[nH]3)CO4)ccnc2N1 (centres unmarked) [Compound 8, 5-[3-[4-[2-(trifluoromethyl)-4-pyridyl]-1H-imidazol-2-yl]chroman-6-yl]oxy-3,4-dihydro-1H-1,8-naphthyridin-2-one] | – | – | 269 nM | 178 nM | 36 µL/min/mg | 269 nM | 6.75
O=C(Nc1cc(Oc2ccc3c(c2)CC(c2nc(-c4ccccc4)c[nH]2)CO3)ccn1)C1CC1 (racemic) [Compound 136] | 66.1 nM | 58.1 µL/min/mg | 89.1 nM | – | – | – | –
CCc1cc(-c2c[nH]c(C3COc4ccc(Oc5ccnc6c5CCC(=O)N6)cc4C3)n2)n(C)n1 (centres unmarked) [Compound 111] | 324 nM | 48.1 µL/min/mg | 107 nM | – | – | – | –
O=C(Nc1cc(Oc2ccc3c(c2)CC(c2nc(-c4ccc(F)cc4)c[nH]2)CO3)ccn1)C1CC1 (centres unmarked) [Compound 155, N-[4-[3-[4-(4-fluorophenyl)-1H-imidazol-2-yl]chroman-6-yl]oxy-2-pyridyl]cyclopropanecarboxamide] | 102 nM | 28.9 µL/min/mg | 72.4 nM | – | – | – | –
O=C1CCc2c(Oc3ccc4c(c3)CC(c3nc(-c5cncc(C(F)F)c5)c[nH]3)CO4)ccnc2N1 (centres unmarked) [Compound 105, 5-[3-[4-[5-(difluoromethyl)-3-pyridyl]-1H-imidazol-2-yl]chroman-6-yl]oxy-3,4-dihydro-1H-1,8-naphthyridin-2-one] | 269 nM | 24.8 µL/min/mg | 64.6 nM | – | – | – | –
CN(C)c1ccc2[nH]c(C3COc4ccc(Oc5ccnc6c5CCC(=O)N6)cc4C3)nc2c1 (centres unmarked) [Compound 26] | – | – | – | 302 nM | 77.5 µL/min/mg | 275 nM | –
O=C1CCc2c(Oc3ccc4c(c3)CC(c3nc5cc(C(F)(F)F)ccc5[nH]3)CO4)ccnc2N1 (centres unmarked) [Compound 22, 5-[3-[6-(trifluoromethyl)-1H-benzimidazol-2-yl]chroman-6-yl]oxy-3,4-dihydro-1H-1,8-naphthyridin-2-one] | – | – | – | 120 nM | 35.9 µL/min/mg | 155 nM | –
CCc1cc(-c2c[nH]c(C3COc4ccc(Oc5ccnc6c5CCC(=O)N6)cc4C3)n2)ccn1 (centres unmarked) [Compound 118, 5-[3-[4-(2-ethyl-4-pyridyl)-1H-imidazol-2-yl]chroman-6-yl]oxy-3,4-dihydro-1H-1,8-naphthyridin-2-one] | 398 nM | 81.2 µL/min/mg | 148 nM | – | – | – | –
